assay: Inhibition of Human prostatic Steroid 5-alpha-reductase; conditions: read-out: Ki app

SMILES | Ki [µM]
CC(C)N(C(=O)[C@H]1CCC2C3CCC4=C/C(=C\C(=O)O)CC[C@]4(C)C3CC[C@@]21C)C(C)C (some centres undefined) | > 5
CC(C)N(C(=O)[C@H]1CCC2C3CC[C@H]4CC(CC(=O)O)=CC[C@]4(C)C3CC[C@@]21C)C(C)C (some centres undefined) | 0.04
CC(C)N(C(=O)[C@H]1CCC2C3CC[C@H]4C=C(CC(=O)O)CC[C@]4(C)C3CC[C@@]21C)C(C)C (some centres undefined) | 0.085
CC(C)N(C(=O)[C@H]1CCC2C3CC[C@H]4C=C(C(=O)O)CC[C@]4(C)C3CC[C@@]21C)C(C)C (some centres undefined) | 0.03
CC(C)N(C(=O)[C@H]1CC[C@H]2[C@@H]3CCc4cc(CC(=O)O)ccc4[C@H]3CC[C@]12C)C(C)C | 0.02
CC(C)N(C(=O)[C@H]1CC[C@H]2[C@@H]3CC[C@H]4C/C(=C/C(=O)O)CC[C@]4(C)[C@H]3CC[C@]12C)C(C)C | > 5

Second part, the compound after the results:

Ki [µM] | SMILES
0.04 | CC(C)N(C(=O)[C@H]1CC[C@H]2[C@@H]3CCc4cc(C(F)(F)C(=O)O)ccc4[C@H]3CC[C@]12C)C(C)C
> 5 | CC(C)N(C(=O)[C@H]1CC[C@H]2[C@@H]3CCc4cc(CS(=O)(=O)O)ccc4[C@H]3CC[C@]12C)C(C)C
0.45 | CC(C)N(C(=O)[C@H]1CCC2C3CC=C4C=C(CC(=O)O)CC[C@]4(C)C3CC[C@@]21C)C(C)C (some centres undefined)
0.29 | CC(C)N(C(=O)[C@H]1CC[C@H]2[C@@H]3CCc4cc(CCC(=O)O)ccc4[C@H]3CC[C@]12C)C(C)C
0.007 | CC(C)N(C(=O)[C@H]1CCC2C3CC=C4C=C(C(=O)O)CC[C@]4(C)C3CC[C@@]21C)C(C)C (some centres undefined)
0.74 | CC(C)N(C(=O)[C@H]1CC[C@H]2[C@@H]3CCc4cc(CP(=O)(O)O)ccc4[C@H]3CC[C@]12C)C(C)C
0.15 | CC(C)N(C(=O)[C@H]1CC[C@H]2[C@@H]3CCc4cc(C(=O)C(=O)O)ccc4[C@H]3CC[C@]12C)C(C)C
> 5 | CC(C)N(C(=O)[C@H]1CCC2C3CCC4=C/C(=C/C(=O)O)CC[C@]4(C)C3CC[C@@]21C)C(C)C (some centres undefined)
